Experimental data as given in US9718828B2 (MERCK SHARP & DOHME CORP., priority 2011, dated 2017).
Where a name gives a salt, the structure may show the parent alone.

Target: Btk enzyme (His-Btk) (Homo sapiens (Human), UniProt Q06187)
Assay: Btk enzyme activity, IMAP fluorescence polarization assay (Assay Method A)
Details: not given

Sequence of Btk enzyme (His-Btk) (Q06187 whole entry): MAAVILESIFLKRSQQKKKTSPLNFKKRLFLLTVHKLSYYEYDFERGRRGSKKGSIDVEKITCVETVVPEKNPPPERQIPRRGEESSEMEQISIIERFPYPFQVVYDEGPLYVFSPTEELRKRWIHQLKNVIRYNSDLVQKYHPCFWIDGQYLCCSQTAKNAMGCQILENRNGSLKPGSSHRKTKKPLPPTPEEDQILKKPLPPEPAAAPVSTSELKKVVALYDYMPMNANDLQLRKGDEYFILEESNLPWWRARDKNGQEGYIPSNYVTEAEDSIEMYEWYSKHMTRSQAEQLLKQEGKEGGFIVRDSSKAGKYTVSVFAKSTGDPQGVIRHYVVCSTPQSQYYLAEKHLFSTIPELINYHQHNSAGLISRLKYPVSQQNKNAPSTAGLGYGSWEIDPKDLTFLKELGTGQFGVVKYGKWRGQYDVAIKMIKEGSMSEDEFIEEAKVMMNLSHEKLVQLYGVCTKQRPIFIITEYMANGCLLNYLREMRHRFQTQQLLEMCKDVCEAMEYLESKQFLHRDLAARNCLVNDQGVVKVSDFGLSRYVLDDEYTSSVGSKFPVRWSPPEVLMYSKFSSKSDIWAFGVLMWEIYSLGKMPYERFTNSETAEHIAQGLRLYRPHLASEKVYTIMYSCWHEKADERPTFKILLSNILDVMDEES

EC50 [nM] | Compound
100 to 1000 | COCCCNC(=O)c1cnc(N)c2c(-c3ccc(C(=O)Nc4cc(C(F)(F)F)ccn4)cc3)nc(C)n12 [Example 291, 8-amino-N-(3-methoxypropyl)-3-methyl-1-(4-(4-(trifluoromethyl)pyridin-2-ylcarbamoyl)phenyl)imidazo[1,5-a]pyrazine-5-carboxamide]
10 to 100 | CC1(C)CC(c2nc(-c3ccc(C(=O)Nc4cc(C#N)ccn4)cc3)c3c(N)nccn23)CCO1 (stereo not shown) [Example 37, 4-(8-amino-3-(2,2-dimethyltetrahydro-2H-pyran-4-yl)imidazo[1,5-a]pyrazin-1-yl)-N-(4-cyanopyridin-2-yl)benzamide]
100 to 1000 | CN(C)CCCC(=O)N1CC[C@@H](c2nc(-c3ccc(C(=O)Nc4ccccn4)cc3)c3c(N)nccn23)C1 [Example 124, (R)-4-(8-amino-3-(1-(4-(dimethylamino)butanoyl)pyrrolidin-3-yl)imidazo[1,5-a]pyrazin-1-yl)-N-(pyridin-2-yl)benzamide]
10 to 100 | Nc1nccn2c(N3CCCC(C(=O)N4CCOCC4)C3)nc(-c3ccc(C(=O)Nc4ccccn4)cc3)c12 (stereo not shown) [Example 229, 4-(8-amino-3-(3-(morpholine-4-carbonyl)piperidin-1-yl)imidazo[1,5-a]pyrazin-1-yl)-N-(pyridin-2-yl)benzamide, TFA salt]
< 10 | N#Cc1ccnc(NC(=O)c2ccc(-c3nc([C@@H]4CCCN(C(=O)C5CC5)C4)n4ccnc(N)c34)cc2)c1 [Example 98, (R)-4-(8-amino-3-(1-(cyclopropanecarbonyl)piperidin-3-yl)imidazo[1,5-a]pyrazin-1 yl)-N-(4-cyanopyridin-2-yl)benzamide]
10 to 100 | Nc1nccn2c(N3CCCC(C(=O)NCC4CC4)C3)nc(-c3ccc(C(=O)Nc4ccccn4)cc3)c12 (stereo not shown) [Example 225, 1-(8-amino-1-(4-(pyridin-2-ylcarbamoyl)phenyl)imidazo[1,5-a]pyrazin-3-yl)-N-(cyclopropylmethyl)-piperidine-3-carboxamide, TFA sat]
< 10 | CC1(C(=O)N2CCC[C@@H](c3nc(-c4ccc(C(=O)Nc5cc(C(F)(F)F)ccn5)cc4)c4c(N)ncnn34)C2)CCC1 [Example 254, (R)-4-(4-amino-7-(1-(1-methylcyclobutanecarbonyl)piperidin-3-yl)imidazo[1,5-f][1,2,4]triazin-5-yl)-N-(4-(trifluoromethyl)pyridin-2-yl)benzamide]
< 10 | COCCC(=O)N1CCC[C@@H](c2nc(-c3ccc(C(=O)Nc4ccccn4)c(F)c3)c3c(N)nccn23)C1 [Example 282, (R)-4-(8-amino-3-(1-(3-methoxypropanoyl)piperidin-3-yl)imidazo[1,5-a]pyrazin-1-yl)-2-fluoro-N-(pyridin-2-yl)benzamide, TFA salt]
< 10 | CCOC(=O)c1cnc(N)c2c(-c3ccc(C(=O)Nc4cc(C(F)(F)F)ccn4)cc3)nc([C@@H]3CCCN(C(=O)C4(C)COC4)C3)n12 [Example 299, (R)-ethyl 8-amino-3-(1-(3-methyloxetane-3-carbonyl)piperidin-3-yl)-1-(4-(4-(trifluoromethyl)pyridine-2-ylcarbamoyl)phenyl)imidazo[1,5-a]pyrazine-5-carboxylate]
10 to 100 | CC(C)(C#N)C(=O)N1CCC[C@@H](c2nc(-c3ccc(C(=O)Nc4ccccn4)cc3)c3c(N)nccn23)C1 [Example 108, (R)-4-(8-amino-3-(1-(2-cyano-2-methylpropanoyl)piperidin-3-yl)imidazo[1,5-a]pyrazin-1-yl)-N-(pyridin-2-yl)benzamide]
< 10 | CCNC(=O)N1CCC[C@@H](c2nc(-c3ccc(C(=O)Nc4cc(C5CC5)ccn4)cc3)c3c(N)nccn23)C1 [Example 63, (R)-3-(8-amino-1-(4-(4-cyclopropylpyridin-2-ylcarbamoyl)phenyl)imidazo [1,5-a]pyrazin-3-yl)-N-ethylpiperidine-1-carboxamide]
< 10 | Nc1nccn2c([C@@H]3CCCN(C(=O)CC4CC4)C3)nc(-c3ccc(C(=O)Nc4ccccn4)cc3)c12 [Example 92, (R)-4-(8-amino-3-(1-(2-cyclopropylacetyl)piperidin-3 yl)imidazo[1,5-a]pyrazin-1-yl)-N-(pyridin-2-yl)benzamide]
< 10 | CCC(=O)N1CCC[C@@H](c2nc(-c3ccc(C(=O)Nc4ccccn4)cc3)c3c(N)nccn23)C1 [Example 46, (R)-4-(8-amino-3-(1-propionylpiperidin-3-yl)imidazo[1,5-a]pyrazin-1-yl)-N-(pyridin-2-yl)benzamide]
10 to 100 | CCN(CC)C(=O)C1CCCN(c2nc(-c3ccc(C(=O)Nc4ccccn4)cc3)c3c(N)nccn23)C1 (stereo not shown) [Example 230, 1-(8-amino-1-(4-(pyridin-2-ylcarbamoyl)phenyl)imidazo[1,5-a]pyrazin-3-yl)-N,N-diethylpiperidine-3-carboxamide, TFA salt]

Same assay, conditions: read-out: EC50 Btk activity values - Assay Method A; IMAP-FP, 60 min pre-incubation, 5 μM ATP

EC50 [nM] | Compound
≥ 1000 | COCCC(=O)N1CCC[C@@H](c2nc(-c3ccc(C(=O)Nc4ccccn4)cc3C(F)(F)F)c3c(N)nccn23)C1 [Example 283, 4-(8-amino-3-((R)-1-(3-methoxypropanoyl)piperidin-3-yl)imidazo[1,5-a]pyrazin-1-yl)-N-(pyridin-2-yl)-3-(trifluoromethyl)benzamide, TFA salt]

Same assay, conditions: read-out: EC50 Btk activity values - Assay Method A; IMAP-FP, 60 min pre-incubation, 5 μM ATP; class 100-1000 is given as ≧100 nM-<1 μM

EC50 [nM] | Compound
< 10 | CC(C)C(=O)N1CCC[C@@H](c2nc(-c3ccc(C(=O)Nc4cc(C(F)(F)F)ccn4)cc3)c3c(N)nccn23)C1 [Example 104, (R)-4-(8-amino-3-(1-isobutyrylpiperidin-3-yl)imidazo[1,5-a]pyrazin-1-yl)-N-(4-(trifluoromethyl)pyridin-2-yl)benzamide]
< 10 | Nc1nccn2c(N3CCCC(C(=O)NC[C@@H]4CCCO4)C3)nc(-c3ccc(C(=O)Nc4ccccn4)cc3)c12 (stereo partly drawn) [Example 227, 1-(8-amino-1-(4-(pyridin-2-ylcarbamoyl)phenyl)imidazo[1,5-a]pyrazin-3-yl)-N-(((S)-tetrahydrofuran-2-yl)methyl)piperidine-3-carboxamide, TFA salt]
< 10 | CCCc1ccnc(NC(=O)c2ccc(-c3nc([C@H]4[C@@H]5COC[C@@H]54)n4ccnc(N)c34)cc2)c1 [Example 30, 4-(8-amino-3-((1R,5S,6S)-3-oxabicyc1o[3.1.0]hexan-6-yl)imidazo[1,5-a]pyrazin-1-yl)-N-(4-propylpyridin-2-yl)benzamide, TFA salt]
< 10 | CCCc1ccnc(NC(=O)c2ccc(-c3nc(N4CCC4)n4ccnc(N)c34)cc2)c1 [Example 208, 4-(8-amino-3-(azetidin-1-yl)imidazo[1,5-a]pyrazin-1-yl)-N-(4-propylpyridin-2-yl)benzamide]
< 10 | CC1(C(=O)N2CCC[C@@H](c3nc(-c4ccc(C(=O)Nc5cc(C(F)(F)F)ccn5)cc4)c4c(N)ncc(/C=C/c5ccccc5)n34)C2)COC1 [Example 309, (R,E)-4-(8-amino-3-(1-(3-methyloxetane-3-carbonyl)piperidin-3-yl)-5-styrylimidazo[1,5-a]pyrazin-1-yl)-N-(4-(trifluoromethyl)pyridin-2-yl)benzamide]
< 10 | COCCC(=O)N1CCC[C@@H](n2nc(-c3ccc(C(=O)Nc4cc(C(F)(F)F)ccn4)cc3)c3c(N)ncnc32)C1 [Example 280, (R)-4-(4-amino-1-(1-(3-methoxypropanoyl)piperidin-3-yl)-1H-pyrazolo[3,4-d]pyrimidin-3-yl)-N-(4-(trifluoromethyl)pyridin-2-yl)benzamide]
< 10 | CC1(C(=O)N2CCC[C@@H](n3nc(-c4ccc(C(=O)Nc5cc(C(F)(F)F)ccn5)cc4)c4c(N)ncnc43)C2)CCC1 [Example 266, (R)-4-(4-amino-1-(1-(1-methylcyclobutanecarbonyl)piperidin-3-yl)-1H-pyrazolo[3,4-d]pyrimidin-3-yl)-N-(4-(trifluoromethyl)pyridin-2-yl)benzamide]
< 10 | CC(C)(F)C(=O)N1CCOC(c2nc(-c3ccc(C(=O)Nc4cc(C(F)(F)F)ccn4)cc3)c3c(N)nccn23)C1 (stereo not shown) [Example 174, 4-(8-amino-3-(4-(2-fluoro-2-methylpropanoyl)morpholin-2-yl)imidazo[1,5-a]pyrazin-1-yl)-N-(4-(trifluoromethyl)pyridin-2-yl)benzamide]
< 10 | CCNC(=O)N1C[C@H](c2nc(-c3ccc(C(=O)Nc4ccccn4)cc3)c3c(N)nccn23)CC[C@@H]1C (relative stereo) [Example 193, (cis)-5-(8-amino-1-(4-(pyridin-2-ylcarbamoyl)phenyl)imidazo [1,5-a]pyrazin-3-yl)-N-ethyl-2-methylpiperidine-1-carboxamide, TFA salt]
< 10 | CCCc1ccnc(NC(=O)c2ccc(-c3nc([C@H]4CC[C@H](O)CC4)n4ccnc(N)c34)cc2)c1 [Example 3, 4-(8-amino-3-((trans)-4-hydroxycyclohexyl)imidazo[1,5-a]pyrazin-1-yl)-N-(4-propylpyridin-2-yl)benzamide]
< 10 | CCOC(=O)N1CCC[C@@H](c2nc(-c3ccc(C(=O)Nc4cc(C(F)(F)F)ccn4)cc3)c3c(N)ncnn23)C1 [Example 255, (R)-ethyl 3-(4-amino-5-(4-(4-(trifluoromethyl)pyridin-2-ylcarbamoyl)phenyl)imidazo[1,5-f][1,2,4]triazin-7-yl)piperidine-1-carboxylate]
< 10 | Nc1nccn2c(N3CCCC(C(=O)N[C@@H]4CCOC4)C3)nc(-c3ccc(C(=O)Nc4cc(C(F)(F)F)ccn4)cc3)c12 (stereo partly drawn) [Example 238, 1-(8-amino-1-(4-(4-(trifluoromethyl)pyridin-2-ylcarbamoyl)phenyl)imidazo[1,5-a]pyrazin-3-yl)-N-((R)-tetrahydrofuran-3-yl)piperidine-3-carboxamide, TFA salt]
< 10 | CCNC(=O)N1CCOC(c2nc(-c3ccc(C(=O)Nc4cc(C(F)(F)F)ccn4)cc3)c3c(N)nccn23)C1 (stereo not shown) [Example 178, 2-(8-amino-1-(4-(4-(trifluoromethyl)pyridin-2-ylcarbamoyl)phenyl)imidazo [1,5-a]pyrazin-3-yl)-N-ethylmorpholine-4-carboxamide]
